Reference: patent US10881637B2 (priority 2015, dated 2021)
Read-outs that look alike come from different tables or passages of the source.

Key:
[1] = tested on: subject with bipolar disorder; assay: Salvia divinorum by combustion and inhalation in one subject with bipolar disorder (Example 1); format: in vivo, human; conditions: for mania on traditional antidepressants: same subject, very small, sub-therapeutic doses
Text: This method was repeated approximately 20 times with consistent results.

[2] = tested on: 50 other receptors, transporters and ion channels including mu- and delta-opioid receptors; conditions: cited from earlier work
D2 receptor = D2 receptor (Homo sapiens, UniProt P14416); conditions: cited from earlier work
Chain of D2 receptor (P14416 whole entry): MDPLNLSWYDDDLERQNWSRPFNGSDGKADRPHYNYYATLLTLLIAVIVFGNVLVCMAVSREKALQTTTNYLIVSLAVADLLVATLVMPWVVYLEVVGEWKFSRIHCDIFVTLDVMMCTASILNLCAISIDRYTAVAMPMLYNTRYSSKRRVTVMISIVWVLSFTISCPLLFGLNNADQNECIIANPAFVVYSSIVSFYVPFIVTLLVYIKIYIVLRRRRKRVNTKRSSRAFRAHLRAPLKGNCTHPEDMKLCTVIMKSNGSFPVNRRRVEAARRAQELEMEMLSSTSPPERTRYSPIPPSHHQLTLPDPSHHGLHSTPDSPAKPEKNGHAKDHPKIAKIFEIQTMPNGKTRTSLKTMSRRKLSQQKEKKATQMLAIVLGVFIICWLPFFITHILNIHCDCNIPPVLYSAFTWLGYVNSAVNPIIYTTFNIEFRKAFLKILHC

5HTP2A receptors = 5HTP2A receptors (Homo sapiens, UniProt P28223); conditions: cited from earlier work
Chain of 5HTP2A receptors (P28223 whole entry): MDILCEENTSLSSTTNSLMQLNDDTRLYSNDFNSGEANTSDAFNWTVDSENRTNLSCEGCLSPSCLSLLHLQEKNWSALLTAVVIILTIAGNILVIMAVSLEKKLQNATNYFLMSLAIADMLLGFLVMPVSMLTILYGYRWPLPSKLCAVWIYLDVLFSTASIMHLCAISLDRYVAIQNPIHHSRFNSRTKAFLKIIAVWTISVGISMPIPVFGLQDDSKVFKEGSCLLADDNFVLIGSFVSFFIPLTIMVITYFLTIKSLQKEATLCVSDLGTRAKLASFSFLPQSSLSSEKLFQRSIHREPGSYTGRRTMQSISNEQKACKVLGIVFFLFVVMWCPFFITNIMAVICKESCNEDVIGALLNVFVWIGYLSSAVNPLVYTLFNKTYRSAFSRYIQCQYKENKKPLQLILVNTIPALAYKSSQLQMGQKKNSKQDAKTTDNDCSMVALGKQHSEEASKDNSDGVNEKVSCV

[3] = cited from earlier work

CNC1(c2ccccc2Cl)CCCCC1=O (centres unmarked) [ketamine]
effect on the anxiolytic and antidepressant effects of Salvia divinorum alone ([1]; co-administered with inhaled Salvia divinorum, cannabis by combustion and inhalation and/or ketamine hydrochloride about 30 to about 75 mg intranasal): appeared to potentiate

CN[C@H]1CC[C@@H](c2ccc(Cl)c(Cl)c2)c2ccccc21 [sertraline]
mania on traditional antidepressants [1]: experienced mania

CN(C)CCCC1(c2ccc(F)cc2)OCc2cc(C#N)ccc21 (centres unmarked) [celexa]
mania on traditional antidepressants [1]: experienced mania

O=C1CN=C(c2ccccc2Cl)c2cc([N+](=O)[O-])ccc2N1 [clonazepam]
effect on the anxiolytic and antidepressant effects of Salvia divinorum alone ([1]; clonazepam oral and/or sublingual, about 1.5 mg b.i.d., along with cannabis and/or intranasal ketamine and inhaled Salvia divinorum): appeared to potentiate | effect on anxiety, tremor or other side effects of Salvia divinorum administration ([1]; clonazepam oral and/or sublingual, along with cannabis and/or intranasal ketamine and inhaled Salvia divinorum): helped to further alleviate any anxiety, tremor or any other side effect

COC(=O)[C@@H]1C[C@H](OC(C)=O)C(=O)[C@H]2[C@@]1(C)CC[C@H]1C(=O)O[C@H](c3ccoc3)C[C@]21C [salvinorin A]
effect on a battery of 50 other receptors, transporters and ion channels [2]: no significant effect | D2 receptor activity (D2 receptor): partial agonist | effect on 5HTP2A receptors (5HTP2A receptors): no significant effect | effect on 5HTP2A receptors (5HTP2A receptors; listed as Salvinorin A): no substantial effect | activity when administered orally ([3]; encapsulated, oral): inactive | absorption on sublingual administration ([3]; sublingual): inconsistent results or no absorption at all
